Measured values published in EPA's ToxRefDB 2.

Key:
rat [1] = details: Subchronic oral toxicity in rodents, fischer, Gavage/Intubation, dose end: 13 week, group: systemic
rat [2] = details: Prenatal developmental toxicity study, sprague dawley, Oral, Gavage/Intubation, dose end: 20 GD
rat [3] = details: Carcinogenicity, fischer, Oral, Gavage/Intubation, dose end: 103 week, group: systemic
mouse [4] = details: Carcinogenicity; b6c3f1; Oral; Gavage/Intubation; dose end: 103 week; group: systemic; systemic / pathology microscopic / stomach / hyperplasia + systemic / pathology microscopic / stomach / inflammation
mouse [5] = details: Sub-acute repeat dose toxicity; b6c3f1; Oral; Gavage/Intubation; dose end: 14 day; group: systemic; systemic / in life observation / mortality / mortality
rat [6] = details: Sub-acute repeat dose toxicity, fischer, Oral, Gavage/Intubation, dose end: 14 day, group: systemic
mouse [7] = details: Multigenerational reproductive toxicity study, Other, Oral, Feed, dose end: 90 day
rat [8] = details: Combined chronic toxicity/carcinogenicity, fischer, Oral, Feed, dose end: 2 year, group: systemic
mouse [9] = details: Carcinogenicity; other; Oral; Water; dose end: 18 week; group: systemic; systemic / pathology microscopic / lung / mixed tumor nos
mouse [10] = details: Subchronic oral toxicity in rodents, BALB/c, Water, dose end: 141 day, group: systemic, systemic / pathology microscopic / liver / hemangioma + systemic / pathology microscopic / liver / hemangiosarcoma + systemic / pathology …
mouse [11] = details: Reproduction/developmental toxicity screening test, other, Injection, Subcutaneous, dose end: 1 PND
[12] = systemic / pathology microscopic / liver / basophilic focus + systemic / pathology microscopic / liver / hypertrophy + systemic / pathology …
[13] = group: developmental, developmental / developmental malformation / bone / ossification sites + systemic / in life observation / body weight / fetal weight
[14] = group: maternal, systemic / in life observation / body weight / body weight gain + systemic / in life observation / food consumption / food consumption + …
[15] = systemic / pathology microscopic / liver / fibrosis + systemic / pathology microscopic / liver / hyperplasia + systemic / pathology …
[16] = systemic / pathology microscopic / liver / pigmentation
[17] = systemic / pathology gross / intestine large / enlarged + systemic / pathology gross / liver / mottling
[18] = group: parental, systemic / in life observation / mortality / mortality
[19] = group: reproductive, reproductive / reproductive performance / fertility / fertility + reproductive / reproductive performance / mating / mating + reproductive…
[20] = systemic / pathology microscopic / kidney / nephropathy + systemic / pathology microscopic / liver / cytomegaly + systemic / pathology …
[21] = systemic / pathology microscopic / liver / cytomegaly + systemic / in life observation / food consumption / food consumption
[22] = group: developmental, developmental / offspring survival late / [other] / [other]
[23] = group: maternal, reproductive / offspring survival early / dead fetuses / dead fetuses
[24] = group: offspring, systemic / pathology microscopic / liver / [other] + systemic / pathology gross / full gross necropsy / hemangiosarcoma
[25] = group: offspring, systemic / pathology microscopic / liver / [other] + systemic / pathology microscopic / liver / hemangioma + systemic / pathology …

## C=CCOC(=O)c1ccccc1C(=O)OCC=C [Diallyl phthalate]
Rat [1]; systemic / in life observation / clinical signs / defecation (diarrhea) + systemic / in life observation / clinical signs / emaciation + …
  NOAEL: 100 mg/kg/day
Rat [1]; [12]
  LEL: 50 mg/kg/day
  LOAEL: 200 mg/kg/day
  NEL: 25 mg/kg/day
Rat [2]; [13]
  LOAEL: > 250 mg/kg/day
  NEL: 150 mg/kg/day
  NOAEL: ≥ 250 mg/kg/day
Rat [2]; group: developmental, systemic / in life observation / body weight / fetal weight
  LEL: 200 mg/kg/day
Rat [2]; [14]
  LOAEL: > 250 mg/kg/day
  NEL: 100 mg/kg/day
  NOAEL: ≥ 250 mg/kg/day
Rat [2]; group: maternal, systemic / pathology gross / liver / discolored + systemic / pathology gross / liver / mottling
  LEL: 150 mg/kg/day
Rat [3]; [15]
  LOAEL: 100 mg/kg/day
  NOAEL: 50 mg/kg/day
Rat [3]; [16]
  LEL: 50 mg/kg/day
  NEL: < 50 mg/kg/day
Mouse [4]
  LEL: 150 mg/kg/day
  LOAEL: 150 mg/kg/day
  NEL: < 150 mg/kg/day
  NOAEL: < 150 mg/kg/day
Mouse [5]
  LEL: 400 mg/kg/day
  LOAEL: > 600 mg/kg/day
  NEL: 200 mg/kg/day
  NOAEL: ≥ 600 mg/kg/day
Rat [6]; [17]
  LEL: 50 mg/kg/day
  NEL: < 50 mg/kg/day
Rat [6]; systemic / pathology gross / liver / discolored + systemic / pathology gross / liver / enlarged + systemic / pathology gross / liver / …
  NOAEL: 100 mg/kg/day
Rat [6]; systemic / pathology gross / liver / mottling + systemic / pathology gross / liver / discolored + systemic / pathology gross / liver / …
  LOAEL: 200 mg/kg/day

## ClC1(Cl)C2(Cl)C3(Cl)C4(Cl)C(Cl)(Cl)C5(Cl)C3(Cl)C1(Cl)C5(Cl)C24Cl (stereo not given) [Mirex]
Mouse [7]; [18]
  LEL: 0.25 mg/kg/day
  LOAEL: > 0.25 mg/kg/day
  NEL: < 0.25 mg/kg/day
  NOAEL: ≥ 0.25 mg/kg/day
Mouse [7]; [19]
  LEL: 0.25 mg/kg/day
  LOAEL: > 0.25 mg/kg/day
  NEL: < 0.25 mg/kg/day
  NOAEL: ≥ 0.25 mg/kg/day
Rat [8]; [20]
  LOAEL: 1.95 mg/kg/day
  NOAEL: 0.75 mg/kg/day
Rat [8]; [21]
  LEL: 0.007 mg/kg/day
  NEL: < 0.007 mg/kg/day

## CN(C)N=O [N-Nitrosodimethylamine]
Mouse [9]
  LEL: 0.0667 mg/kg/day
  LOAEL: > 0.0667 mg/kg/day
  NEL: < 0.0667 mg/kg/day
  NOAEL: ≥ 0.0667 mg/kg/day
Mouse [10]
  LEL: 1.33 mg/kg/day
  LOAEL: > 1.33 mg/kg/day
  NEL: < 1.33 mg/kg/day
  NOAEL: ≥ 1.33 mg/kg/day
Mouse [11]; [22]
  LEL: 1 mg/kg/day
  LOAEL: > 50 mg/kg/day
  NEL: < 1 mg/kg/day
  NOAEL: ≥ 50 mg/kg/day
Mouse [11]; [23]
  LEL: 20 mg/kg/day
  LOAEL: > 50 mg/kg/day
  NEL: 10 mg/kg/day
  NOAEL: ≥ 50 mg/kg/day
Mouse [11]; [24]
  LEL: 1 mg/kg/day
  NEL: < 1 mg/kg/day
Mouse [11]; [25]
  LOAEL: > 50 mg/kg/day
  NOAEL: ≥ 50 mg/kg/day
